Source: PubChem BioAssay (NCI)
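How tested: cells in 96-well plates exposed to compound for 48 hours at five concentrations. TGI: total growth inhibition.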

Columns and labels:
Assay in all cases: inhibition of tumour cell growth, NCI panel, 48 h
SNB-19 CNS = system: SNB-19 CNS
ACHN renal = system: ACHN renal
HL-60(TB) leukemia = system: HL-60(TB) leukemia
SF-539 CNS = system: SF-539 CNS
M14 melanoma = system: M14 melanoma
MDA-N = system: MDA-N
SK-MEL-2 melanoma = system: SK-MEL-2 melanoma
SNB-75 CNS = system: SNB-75 CNS
MCF7 breast = system: MCF7 breast
SW-620 colon = system: SW-620 colon
HT29 colon = system: HT29 colon
UACC-62 melanoma = system: UACC-62 melanoma
SK-MEL-5 melanoma = system: SK-MEL-5 melanoma
NCI-H226 lung = system: NCI-H226 lung
UO-31 renal = system: UO-31 renal
SR leukemia = system: SR leukemia
HCC-2998 colon = system: HCC-2998 colon
OVCAR-4 ovarian = system: OVCAR-4 ovarian
MDA-MB-231 breast = system: MDA-MB-231 breast
K-562 leukemia = system: K-562 leukemia
HCT-116 colon = system: HCT-116 colon
A498 renal = system: A498 renal
OVCAR-5 ovarian = system: OVCAR-5 ovarian
PC-3 prostate = system: PC-3 prostate
MDA-MB-435 = system: MDA-MB-435
CAKI-1 renal = system: CAKI-1 renal
SN12C renal = system: SN12C renal
U251 CNS = system: U251 CNS
COLO 205 colon = system: COLO 205 colon
LOX IMVI melanoma = system: LOX IMVI melanoma
UACC-257 melanoma = system: UACC-257 melanoma
OVCAR-3 ovarian = system: OVCAR-3 ovarian
CCRF-CEM leukemia = system: CCRF-CEM leukemia
SF-295 CNS = system: SF-295 CNS
RXF 393 renal = system: RXF 393 renal
HOP-62 NSCLC = system: HOP-62 NSCLC
NCI-H522 lung = system: NCI-H522 lung
786-0 renal = system: 786-0 renal
OVCAR-8 ovarian = system: OVCAR-8 ovarian
KM12 colon = system: KM12 colon
HOP-92 NSCLC = system: HOP-92 NSCLC
NCI-H23 lung = system: NCI-H23 lung
MALME-3M melanoma = system: MALME-3M melanoma
SK-MEL-28 melanoma = system: SK-MEL-28 melanoma
HCT-15 colon = system: HCT-15 colon
MOLT-4 leukemia = system: MOLT-4 leukemia
SK-OV-3 ovarian = system: SK-OV-3 ovarian
DU-145 prostate = system: DU-145 prostate
NCI-H460 lung = system: NCI-H460 lung
EKVX NSCLC = system: EKVX NSCLC
NCI/ADR-RES ovarian = system: NCI/ADR-RES ovarian
BT-549 breast = system: BT-549 breast
A549 NSCLC = system: A549 NSCLC
RPMI-8226 leukemia = system: RPMI-8226 leukemia

Measured: TGI

CC(CO)CCC(O)C(C)(O)C1CCC2(O)C3=CC(=O)C4CC(O)C(O)CC4(C)C3CCC12C (centres undefined)
> 100 µM: SNB-19 CNS | ACHN renal | HL-60(TB) leukemia | SF-539 CNS | M14 melanoma | MDA-N | SK-MEL-2 melanoma | SNB-75 CNS | MCF7 breast | SW-620 colon | HT29 colon | UACC-62 melanoma | SK-MEL-5 melanoma | NCI-H226 lung | UO-31 renal | SR leukemia | HCC-2998 colon | OVCAR-4 ovarian | MDA-MB-231 breast | K-562 leukemia | HCT-116 colon | A498 renal | OVCAR-5 ovarian | PC-3 prostate | MDA-MB-435 | CAKI-1 renal | SN12C renal | U251 CNS | COLO 205 colon | LOX IMVI melanoma | UACC-257 melanoma | OVCAR-3 ovarian | CCRF-CEM leukemia | SF-295 CNS | RXF 393 renal | HOP-62 NSCLC | NCI-H522 lung | 786-0 renal | OVCAR-8 ovarian | KM12 colon | HOP-92 NSCLC | NCI-H23 lung | MALME-3M melanoma | SK-MEL-28 melanoma | HCT-15 colon | MOLT-4 leukemia | SK-OV-3 ovarian | DU-145 prostate | NCI-H460 lung | EKVX NSCLC | NCI/ADR-RES ovarian | BT-549 breast | A549 NSCLC | RPMI-8226 leukemia
